Test results published in ChEMBL document CHEMBL4028801, “A multifactorial approach to hepatobiliary transporter assessment enables improved therapeutic compound development” (Toxicol Sci, 2013).

How the values were obtained:
Bile salt export pump = Bile salt export pump (Homo sapiens, UniProt O95342); experiment: Inhibition of human BSEP overexpressed in Sf9 cell membrane vesicles assessed as uptake of [3H]-taurocholate in presence of ATP measured after 15 to 20 mins by membrane vesicle transport assay; format: ADME, cell-based
[1] = biological target: ATP-binding cassette sub-family C member 2 (Homo sapiens, UniProt Q92887); experiment: Inhibition of human MRP2 overexpressed in Sf9 cell membrane vesicles assessed as uptake of [3H]-estradiol-17beta-D-glucuronide in presence of ATP and GSH measured after 20 mins by membrane vesicle transport assay
[2] = biological target: ATP-binding cassette sub-family C member 3 (Homo sapiens, UniProt O15438); experiment: Inhibition of human MRP3 overexpressed in Sf9 insect cell membrane vesicles assessed as uptake of [3H]-estradiol-17beta-D-glucuronide in presence of ATP and GSH measured after 10 mins by membrane vesicle transport assay; format: ADME, cell-based
[3] = biological target: T1, ATP-binding cassette sub-family C member 4 (Homo sapiens, UniProt O15439); experiment: Inhibition of human MRP4 overexpressed in Sf9 cell membrane vesicles assessed as uptake of [3H]-estradiol-17beta-D-glucuronide in presence of ATP and GSH measured after 20 mins by membrane vesicle transport assay; format: ADME, cell-based
T1 sequence (O15439 whole entry): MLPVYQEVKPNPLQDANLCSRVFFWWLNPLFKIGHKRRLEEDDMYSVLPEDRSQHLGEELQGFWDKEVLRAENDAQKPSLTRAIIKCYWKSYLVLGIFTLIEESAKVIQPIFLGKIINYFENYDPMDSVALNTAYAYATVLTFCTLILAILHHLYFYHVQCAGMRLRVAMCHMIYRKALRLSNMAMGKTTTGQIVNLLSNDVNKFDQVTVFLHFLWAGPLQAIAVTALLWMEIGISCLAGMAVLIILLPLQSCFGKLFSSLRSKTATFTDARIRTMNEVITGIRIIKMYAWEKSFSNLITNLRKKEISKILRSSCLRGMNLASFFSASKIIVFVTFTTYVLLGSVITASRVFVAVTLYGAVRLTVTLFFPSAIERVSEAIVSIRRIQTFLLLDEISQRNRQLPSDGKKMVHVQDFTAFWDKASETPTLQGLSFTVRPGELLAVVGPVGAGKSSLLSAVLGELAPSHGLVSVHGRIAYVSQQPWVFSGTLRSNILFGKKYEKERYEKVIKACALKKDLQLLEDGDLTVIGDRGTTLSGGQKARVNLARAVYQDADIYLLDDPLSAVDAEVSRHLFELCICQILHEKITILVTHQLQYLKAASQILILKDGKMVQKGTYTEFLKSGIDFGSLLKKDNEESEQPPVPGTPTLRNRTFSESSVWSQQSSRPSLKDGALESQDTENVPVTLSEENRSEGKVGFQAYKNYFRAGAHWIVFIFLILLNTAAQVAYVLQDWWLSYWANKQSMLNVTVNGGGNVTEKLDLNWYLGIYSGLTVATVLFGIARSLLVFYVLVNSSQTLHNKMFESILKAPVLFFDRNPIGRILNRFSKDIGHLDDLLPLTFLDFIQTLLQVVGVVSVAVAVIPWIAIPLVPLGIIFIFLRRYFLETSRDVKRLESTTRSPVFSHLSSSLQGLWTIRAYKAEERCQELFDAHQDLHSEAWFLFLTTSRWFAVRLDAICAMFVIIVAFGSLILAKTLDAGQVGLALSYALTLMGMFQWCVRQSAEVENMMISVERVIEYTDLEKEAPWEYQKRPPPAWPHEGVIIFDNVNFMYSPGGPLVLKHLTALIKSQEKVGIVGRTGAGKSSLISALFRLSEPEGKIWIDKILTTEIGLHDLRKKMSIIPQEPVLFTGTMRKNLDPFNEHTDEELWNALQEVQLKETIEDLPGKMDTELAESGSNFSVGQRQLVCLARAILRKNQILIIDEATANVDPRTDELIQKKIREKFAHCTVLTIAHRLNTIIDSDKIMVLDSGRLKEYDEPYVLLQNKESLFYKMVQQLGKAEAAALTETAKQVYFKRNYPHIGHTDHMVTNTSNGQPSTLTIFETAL

[4] = AUC in human at 2.5 to 10 mg, po QD after 24 hrs; format: ADME, organism-based; conditions: in vivo
[5] = Drug concentration at steady state in human at 2.5 to 10 mg, po QD after 24 hrs; format: ADME, organism-based; conditions: in vivo, read-out: Css
[6] = Ratio of drug concentration at steady state in human at 2.5 to 10 mg, po QD after 24 hrs to IC50 for human BSEP overexpressed in Sf9 insect cells; format: ADME, organism-based; conditions: in vivo
[7] = AUC in human at 60 to 250 mg, po QD after 12 hrs; format: ADME, organism-based; conditions: in vivo
[8] = Drug concentration at steady state in human at 60 to 250 mg, po QD after 12 hrs; format: ADME, organism-based; conditions: in vivo, read-out: Css
[9] = Ratio of drug concentration at steady state in human at 60 to 250 mg, po QD after 12 hrs to IC50 for human BSEP overexpressed in Sf9 insect cells; format: ADME, organism-based; conditions: in vivo
[10] = AUC in human at 5 to 10 mg, po QD after 24 hrs; format: ADME, organism-based; conditions: in vivo
[11] = Drug concentration at steady state in human at 5 to 10 mg, po QD after 24 hrs; format: ADME, organism-based; conditions: in vivo, read-out: Css
[12] = Ratio of drug concentration at steady state in human at 5 to 10 mg, po QD after 24 hrs to IC50 for human BSEP overexpressed in Sf9 insect cells; format: ADME, organism-based; conditions: in vivo
[13] = Ratio of drug concentration at steady state in human at 5 to 10 mg, po QD after 24 hrs to IC50 for human MRP4 overexpressed in Sf9 insect cells; format: ADME, organism-based; conditions: in vivo
[14] = Drug concentration at steady state in human at 10 mg, po QD after 24 hrs; conditions: in vivo
clinical = conditions: human, in vivo, po, 10 mg
[15] = AUC in human at 6 to 12 mg, po BID after 12 hrs; format: ADME, organism-based; conditions: in vivo
[16] = Drug concentration at steady state in human at 6 to 12 mg, po BID after 12 hrs; format: ADME, organism-based; conditions: in vivo, read-out: Css
[17] = Ratio of drug concentration at steady state in human at 6 to 12 mg, po BID after 12 hrs to IC50 for human BSEP overexpressed in Sf9 insect cells; format: ADME, organism-based; conditions: in vivo
[18] = AUC in human at 0.1 to 1 mg, po QD after 24 hrs; format: ADME, organism-based; conditions: in vivo
[19] = Drug concentration at steady state in human at 0.1 to 1 mg, po QD after 24 hrs; format: ADME, organism-based; conditions: in vivo, read-out: Css
[20] = Ratio of drug concentration at steady state in human at 0.1 to 1 mg, po QD after 24 hrs to IC50 for human BSEP overexpressed in Sf9 insect cells; format: ADME, organism-based; conditions: in vivo
[21] = Ratio of drug concentration at steady state in human at 0.1 to 1 mg, po QD after 24 hrs to IC50 for human MRP2 overexpressed in Sf9 insect cells; format: ADME, organism-based; conditions: in vivo
[22] = AUC in human at 1.5 ug administered as 1 drop intraocularly QD after 24 hrs; format: ADME; parameters: dose 1.5 ug, time < 24 hr, route intraocular; conditions: in vivo, topical or ocular
[23] = Drug concentration at steady state in human at 1.5 ug administered as 1 drop intraocularly QD after 24 hrs; format: ADME; conditions: in vivo, topical or ocular, read-out: Css
[24] = Ratio of drug concentration at steady state in human at 1.5 ug administered as 1 drop intraocularly QD after 24 hrs to IC50 for human BSEP overexpressed in Sf9 insect cells; format: ADME; conditions: in vivo, topical_or_ocular

ATP-binding cassette sub-family C member 2, sequence (Q92887 whole entry): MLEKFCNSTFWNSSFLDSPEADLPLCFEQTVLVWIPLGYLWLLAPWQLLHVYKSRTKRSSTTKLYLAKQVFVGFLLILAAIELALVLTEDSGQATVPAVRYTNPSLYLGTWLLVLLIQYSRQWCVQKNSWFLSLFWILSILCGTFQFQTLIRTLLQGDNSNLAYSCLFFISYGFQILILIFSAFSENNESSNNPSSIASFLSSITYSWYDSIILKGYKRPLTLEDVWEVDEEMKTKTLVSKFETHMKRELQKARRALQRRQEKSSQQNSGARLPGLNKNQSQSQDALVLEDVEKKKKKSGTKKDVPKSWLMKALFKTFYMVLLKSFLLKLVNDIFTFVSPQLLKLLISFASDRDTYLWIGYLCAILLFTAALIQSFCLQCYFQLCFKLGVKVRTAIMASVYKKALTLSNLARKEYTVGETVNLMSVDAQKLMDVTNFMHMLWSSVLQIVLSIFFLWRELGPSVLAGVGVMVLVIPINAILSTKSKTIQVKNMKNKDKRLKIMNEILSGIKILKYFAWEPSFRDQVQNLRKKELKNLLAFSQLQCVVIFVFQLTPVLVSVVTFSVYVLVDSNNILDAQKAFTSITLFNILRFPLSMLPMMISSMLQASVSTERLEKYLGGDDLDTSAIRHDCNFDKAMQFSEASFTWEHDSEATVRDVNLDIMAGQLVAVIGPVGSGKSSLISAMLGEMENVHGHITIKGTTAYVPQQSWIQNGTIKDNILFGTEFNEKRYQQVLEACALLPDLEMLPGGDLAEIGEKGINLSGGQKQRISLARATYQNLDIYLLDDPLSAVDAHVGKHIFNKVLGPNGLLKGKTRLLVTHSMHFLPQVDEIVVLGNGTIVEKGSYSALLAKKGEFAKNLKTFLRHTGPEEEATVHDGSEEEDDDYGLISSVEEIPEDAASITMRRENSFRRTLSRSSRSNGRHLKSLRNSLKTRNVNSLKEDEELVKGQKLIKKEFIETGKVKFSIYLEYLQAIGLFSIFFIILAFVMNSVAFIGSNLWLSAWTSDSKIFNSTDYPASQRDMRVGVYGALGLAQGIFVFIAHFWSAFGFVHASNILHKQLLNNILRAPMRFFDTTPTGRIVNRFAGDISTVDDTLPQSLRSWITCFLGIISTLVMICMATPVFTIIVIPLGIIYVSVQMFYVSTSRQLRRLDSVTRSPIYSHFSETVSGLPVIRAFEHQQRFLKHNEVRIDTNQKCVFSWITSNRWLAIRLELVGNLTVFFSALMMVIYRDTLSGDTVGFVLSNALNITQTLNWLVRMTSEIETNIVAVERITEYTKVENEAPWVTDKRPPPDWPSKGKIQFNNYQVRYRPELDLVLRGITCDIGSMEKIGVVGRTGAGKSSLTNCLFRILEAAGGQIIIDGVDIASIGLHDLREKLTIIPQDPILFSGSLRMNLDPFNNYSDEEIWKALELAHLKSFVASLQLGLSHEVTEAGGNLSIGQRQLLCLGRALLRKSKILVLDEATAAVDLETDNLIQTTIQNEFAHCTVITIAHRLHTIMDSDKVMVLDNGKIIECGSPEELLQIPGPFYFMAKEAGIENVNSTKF
ATP-binding cassette sub-family C member 3, sequence (O15438 whole entry): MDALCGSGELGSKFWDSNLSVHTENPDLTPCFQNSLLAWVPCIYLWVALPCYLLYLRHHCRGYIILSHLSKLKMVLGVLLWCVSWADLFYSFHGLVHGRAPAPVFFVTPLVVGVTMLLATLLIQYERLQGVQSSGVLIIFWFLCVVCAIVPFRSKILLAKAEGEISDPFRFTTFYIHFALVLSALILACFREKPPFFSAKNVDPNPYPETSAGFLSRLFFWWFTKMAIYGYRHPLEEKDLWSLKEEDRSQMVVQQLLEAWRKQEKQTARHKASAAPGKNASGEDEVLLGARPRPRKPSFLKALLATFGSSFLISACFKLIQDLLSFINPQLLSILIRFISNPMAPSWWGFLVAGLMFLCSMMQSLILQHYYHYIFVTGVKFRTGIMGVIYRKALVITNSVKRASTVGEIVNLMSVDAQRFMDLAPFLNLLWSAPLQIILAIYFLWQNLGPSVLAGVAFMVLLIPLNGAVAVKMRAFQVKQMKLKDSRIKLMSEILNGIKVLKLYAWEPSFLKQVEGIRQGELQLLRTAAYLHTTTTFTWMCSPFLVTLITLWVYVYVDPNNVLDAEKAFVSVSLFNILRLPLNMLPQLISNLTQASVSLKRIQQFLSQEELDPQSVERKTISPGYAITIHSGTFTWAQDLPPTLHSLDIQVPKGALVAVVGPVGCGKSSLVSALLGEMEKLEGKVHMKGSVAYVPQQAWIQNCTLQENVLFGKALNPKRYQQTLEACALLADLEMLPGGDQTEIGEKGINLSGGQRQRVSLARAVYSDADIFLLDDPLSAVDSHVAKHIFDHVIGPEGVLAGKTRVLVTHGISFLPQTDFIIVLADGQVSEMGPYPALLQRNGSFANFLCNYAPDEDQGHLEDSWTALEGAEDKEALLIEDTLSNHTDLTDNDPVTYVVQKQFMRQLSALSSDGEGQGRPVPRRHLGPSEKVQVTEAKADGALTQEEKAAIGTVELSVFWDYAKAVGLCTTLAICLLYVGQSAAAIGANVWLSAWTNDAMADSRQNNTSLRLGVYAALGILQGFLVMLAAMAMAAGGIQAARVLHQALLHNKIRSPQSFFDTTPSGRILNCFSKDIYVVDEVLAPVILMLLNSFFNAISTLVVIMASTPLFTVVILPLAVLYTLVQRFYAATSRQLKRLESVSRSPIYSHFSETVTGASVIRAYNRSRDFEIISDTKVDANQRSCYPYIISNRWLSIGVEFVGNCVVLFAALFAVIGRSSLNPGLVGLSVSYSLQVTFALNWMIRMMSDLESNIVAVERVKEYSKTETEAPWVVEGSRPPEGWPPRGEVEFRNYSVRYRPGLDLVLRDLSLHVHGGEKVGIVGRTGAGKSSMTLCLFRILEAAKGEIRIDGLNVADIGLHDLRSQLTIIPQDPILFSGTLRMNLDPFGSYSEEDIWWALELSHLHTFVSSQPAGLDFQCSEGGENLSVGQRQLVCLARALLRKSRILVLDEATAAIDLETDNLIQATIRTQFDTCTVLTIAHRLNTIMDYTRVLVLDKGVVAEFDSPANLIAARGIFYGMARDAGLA
Bile salt export pump, sequence (O95342 whole entry): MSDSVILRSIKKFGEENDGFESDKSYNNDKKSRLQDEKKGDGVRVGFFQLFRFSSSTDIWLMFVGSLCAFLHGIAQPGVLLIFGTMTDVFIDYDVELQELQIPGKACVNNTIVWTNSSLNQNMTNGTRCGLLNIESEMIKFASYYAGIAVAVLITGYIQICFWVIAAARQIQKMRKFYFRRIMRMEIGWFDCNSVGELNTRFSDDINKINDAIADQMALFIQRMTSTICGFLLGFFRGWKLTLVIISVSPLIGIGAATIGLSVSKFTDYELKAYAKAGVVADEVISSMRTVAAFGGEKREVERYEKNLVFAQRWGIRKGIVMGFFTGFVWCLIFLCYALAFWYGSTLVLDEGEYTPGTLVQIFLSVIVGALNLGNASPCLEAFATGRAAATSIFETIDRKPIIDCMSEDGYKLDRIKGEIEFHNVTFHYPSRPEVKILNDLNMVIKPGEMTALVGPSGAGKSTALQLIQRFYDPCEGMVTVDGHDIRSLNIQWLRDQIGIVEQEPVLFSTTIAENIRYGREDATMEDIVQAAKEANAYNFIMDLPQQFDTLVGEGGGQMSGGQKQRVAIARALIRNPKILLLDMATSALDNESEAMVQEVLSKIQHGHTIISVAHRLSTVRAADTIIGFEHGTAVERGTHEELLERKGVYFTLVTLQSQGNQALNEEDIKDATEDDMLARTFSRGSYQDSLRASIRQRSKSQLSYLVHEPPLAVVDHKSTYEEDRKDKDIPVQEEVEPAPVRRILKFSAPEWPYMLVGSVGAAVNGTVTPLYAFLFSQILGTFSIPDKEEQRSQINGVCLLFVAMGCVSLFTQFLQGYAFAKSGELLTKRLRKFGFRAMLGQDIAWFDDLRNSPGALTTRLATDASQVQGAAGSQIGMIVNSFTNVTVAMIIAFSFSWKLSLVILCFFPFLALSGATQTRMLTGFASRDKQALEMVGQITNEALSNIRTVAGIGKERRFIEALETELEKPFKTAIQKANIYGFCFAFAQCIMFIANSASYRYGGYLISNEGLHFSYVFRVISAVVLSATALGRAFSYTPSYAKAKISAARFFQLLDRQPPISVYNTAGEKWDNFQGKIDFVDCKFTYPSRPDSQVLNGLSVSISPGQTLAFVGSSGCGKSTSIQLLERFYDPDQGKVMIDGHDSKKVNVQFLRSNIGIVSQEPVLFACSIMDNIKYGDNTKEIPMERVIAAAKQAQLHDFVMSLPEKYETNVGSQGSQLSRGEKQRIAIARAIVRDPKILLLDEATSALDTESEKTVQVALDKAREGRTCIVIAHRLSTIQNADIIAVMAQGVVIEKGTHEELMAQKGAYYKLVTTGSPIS

SMILES | IC50 [1] [µM] | IC50 [2] [µM] | IC50 [3] [µM] | IC50 (Bile salt export pump) [µM] | also measured
CC(=O)O[C@]1(C(C)=O)CC[C@H]2[C@@H]3C[C@H](C)C4=CC(=O)CC[C@]4(C)[C@H]3CC[C@@]21C [MEDROXYPROGESTERONE ACETATE] | > 133 | > 133 | 22.5 | 15.7 | AUC at 24 h [10]: 0.016 µM·h; concentration at 24 h [11]: 1 nM; Ratio [12]: 0.00004; Ratio [13]: 0
CCOC(=O)N1CCC(=C2c3ccc(Cl)cc3CCc3cccnc32)CC1 [LORATADINE] | > 133 | > 133 | > 133 | 12 | concentration at 24 h [14]: 1 nM; AUC at 24 h (clinical): 0.029 µM·h
COc1cc(C(C)=O)ccc1OCCCN1CCC(c2noc3cc(F)ccc23)CC1 [ILOPERIDONE] | > 133 | > 133 | > 133 | 23.4 | AUC at 12 h [15]: 0.106 µM·h; concentration at 12 h [16]: 9 nM; Ratio [17]: 0.00038
CC(C)OC(=O)CCC/C=C\C[C@@H]1[C@@H](CC[C@@H](O)CCc2ccccc2)[C@H](O)C[C@@H]1O [LATANOPROST] | > 133 | > 133 | > 133 | 12.9 | AUC at 24 h [22]: 0.047 µM·h; concentration at 24 h [23]: 2 nM; Ratio [24]: 0.00015

Further lines, with some results ahead:

IC50 [1] [µM] | IC50 [2] [µM] | IC50 [3] [µM] | SMILES | IC50 (Bile salt export pump) [µM] | also measured
> 133 | > 133 | > 133 | CCOC(=O)C1=C(C)NC(C)=C(C(=O)OC)C1c1cccc(Cl)c1Cl (centres undefined) [FELODIPINE] | 69.7 | AUC at 24 h [4]: 0.107 µM·h; concentration at 24 h [5]: 4 nM; Ratio [6]: 0.00006
> 133 | > 133 | > 133 | CN1CCN(C2=Nc3ccccc3Oc3ccc(Cl)cc32)CC1.O=C(O)CCC(=O)O [LOXAPINE SUCCINATE] | 77 | AUC at 12 h [7]: 0.369 µM·h; concentration at 12 h [8]: 31 nM; Ratio [9]: 0.0004
68.4 | > 133 | > 133 | COC(=O)[C@H]1[C@H]2C[C@@H]3c4[nH]c5cc(OC)ccc5c4CCN3C[C@H]2C[C@@H](OC(=O)c2cc(OC)c(OC)c(OC)c2)[C@@H]1OC [RESERPINE] | – | AUC at 24 h [18]: 0.014 µM·h; concentration at 24 h [19]: 1 nM; Ratio [20]: 0.00007; Ratio [21]: 0
